Assay results as given in patent publication US5888972A, “Peptide compounds, their preparation and uses” (Fujisawa Pharmaceutical Co., Ltd., priority 1993, dated 1999).

Molecular target: endothelin receptors
Test: Radioligand binding assay: [^125 I]ET-1 binding in porcine kidney membrane
Details: membranes from inner medulla of porcine kidney; [^125 I]ET-1 16 pM; 60 minutes at 23° C.; read-out: Effect on specific binding of [^125 I]ET-1 in porcine kidney membrane, IC50
Procedure: Radioligand binding assay:
(a) Crude receptor membrane preparation:
Membranes as endothelin receptors were isolated from inner medulla of porcine kidney. The inner medulla of porcine kidney was placed in ice-cold buffer (0.25M sucrose, 5 mM Tris-HCl, 0.1 mM EDTA, pH 7.5). The inner medulla was homogenized in five volumes (w/v) of ice-cold buffer using a Brinkman Polytron PT-10 at a setting of 16,000 rpm for three 10-sec periods. The homogenate was centrifuged at 10,000×g for 20 minutes at 4° C. The pellet was discarded and the supernatant was centrifuged at 100,000×g for 60 minutes at 4° C. […]
To determine [^125 I]ET-1 binding to kidney, membrane suspensions prepared from kidney (10 μg of protein) were incubated by constant shaking for 60 minutes at 23° C. with [^125 I]ET-1 (range, 4-900 pM) in a total volume of 250 μl of buffer 1 that contained 0.1 mg/ml of bovine serum albumin. […] The filter disks were washed three times with 0.2 ml of ice-cold 50 mM Tris-HCl buffer (pH 7.5), and the radioactivity was counted in a gamma counter (Hewlett-Packard) with an efficiency of 71%. […] The Kd was determined by Scatchard analysis. […]

## CC(C)C[C@@H](C(=O)N[C@H](Cc1cccc2ccccc12)C(=O)N[C@@H](C(=O)O)C(C)C)N(CCN(C)Cc1cccnc1)C(=O)Cc1ccccc1Cl [Compound A]
  IC50: 68 nM
